Laboratory results published in patent US9682995B2, “Amino-substituted isothiazoles” (BAYER PHARMA AKTIENGESELLSCHAFT, priority 2013, dated 2017).

Assays:
Test in all cases: Kinase Profiling (KINOMEscan)
Assay type in all cases: binding
[1] = target: 456 kinases (of these 395 non-mutant kinases) (Homo sapiens, UniProt Q15746); settings: MYLK; 10 μM
[2] = target: 456 kinases (of these 395 non-mutant kinases) (Homo sapiens, UniProt P42336, E542K); settings: PIK3CA(E542K); 10 μM
[3] = target: 456 kinases (of these 395 non-mutant kinases) (Homo sapiens, UniProt P49841); settings: GSK3B; 10 μM
[4] = target: 456 kinases (of these 395 non-mutant kinases) (Homo sapiens, UniProt P29320); settings: EPHA3; 10 μM
[5] = target: 456 kinases (of these 395 non-mutant kinases) (Homo sapiens, UniProt P17948); settings: FLT1; 10 μM
[6] = target: 456 kinases (of these 395 non-mutant kinases) (Homo sapiens, UniProt O95835); settings: LATS1; 10 μM
[7] = target: 456 kinases (of these 395 non-mutant kinases) (Homo sapiens, UniProt Q9NRP7); settings: STK36; 10 μM
[8] = target: 456 kinases (of these 395 non-mutant kinases) (Homo sapiens, UniProt P29323); settings: EPHB2; 10 μM
[9] = target: 456 kinases (of these 395 non-mutant kinases) (Homo sapiens, UniProt Q9H093); settings: SNARK; 10 μM
[10] = target: 456 kinases (of these 395 non-mutant kinases) (Homo sapiens, UniProt P00533); settings: EGFR; 10 μM
[11] = target: 456 kinases (of these 395 non-mutant kinases) (Homo sapiens, UniProt Q7L7X3); settings: TAOK1; 10 μM
[12] = target: 456 kinases (of these 395 non-mutant kinases) (Homo sapiens, UniProt Q13470); settings: TNK1; 10 μM
[13] = target: 456 kinases (of these 395 non-mutant kinases) (Homo sapiens, UniProt Q99558); settings: NIK; 10 μM
[14] = target: 456 kinases (of these 395 non-mutant kinases) (Homo sapiens, UniProt P80192); settings: MLK1; 10 μM
[15] = target: 456 kinases (of these 395 non-mutant kinases) (Homo sapiens, UniProt Q13554); settings: CAMK2B; 10 μM
[16] = target: 456 kinases (of these 395 non-mutant kinases) (Homo sapiens, UniProt O15111); settings: IKK-alpha; 10 μM
[17] = target: 456 kinases (of these 395 non-mutant kinases) (Homo sapiens, UniProt Q9HBY8); settings: SGK2; 10 μM
[18] = target: 456 kinases (of these 395 non-mutant kinases) (Homo sapiens, UniProt P29322); settings: EPHA8; 10 μM
[19] = target: 456 kinases (of these 395 non-mutant kinases) (Homo sapiens, UniProt Q05397); settings: FAK; 10 μM
[20] = target: 456 kinases (of these 395 non-mutant kinases) (Homo sapiens, UniProt O43683); settings: BUB1; 10 μM
[21] = target: 456 kinases (of these 395 non-mutant kinases) (Homo sapiens, UniProt Q6XUX3); settings: RIPK5; 10 μM
[22] = target: 456 kinases (of these 395 non-mutant kinases) (Homo sapiens, UniProt P68400); settings: CSNK2A1; 10 μM
[23] = target: 456 kinases (of these 395 non-mutant kinases) (Homo sapiens, UniProt O14730); settings: RIOK3; 10 μM
[24] = target: 456 kinases (of these 395 non-mutant kinases) (Homo sapiens, UniProt Q02763); settings: TIE2; 10 μM
[25] = target: 456 kinases (of these 395 non-mutant kinases) (Homo sapiens, UniProt P42338); settings: PIK3CB; 10 μM
[26] = target: 456 kinases (of these 395 non-mutant kinases) (Homo sapiens, UniProt P42679); settings: CTK; 10 μM
[27] = target: 456 kinases (of these 395 non-mutant kinases) (Homo sapiens, UniProt Q9NRM7); settings: LATS2; 10 μM
[28] = target: 456 kinases (of these 395 non-mutant kinases) (Homo sapiens, UniProt P53350); settings: PLK1; 10 μM
[29] = target: 456 kinases (of these 395 non-mutant kinases) (Homo sapiens, UniProt P10721, L576P); settings: KIT(L576P); 10 μM
[30] = target: 456 kinases (of these 395 non-mutant kinases) (Homo sapiens, UniProt Q9UQM7); settings: CAMK2A; 10 μM
[31] = target: 456 kinases (of these 395 non-mutant kinases) (Homo sapiens, UniProt P54762); settings: EPHB1; 10 μM
[32] = target: 456 kinases (of these 395 non-mutant kinases) (Homo sapiens, UniProt P07949, V804M); settings: RET(V804M); 10 μM
Chain of 456 kinases (of these 395 non-mutant kinases) (Homo sapiens, UniProt P07949, V804M) (P07949 29-1114 V804M limits assumed): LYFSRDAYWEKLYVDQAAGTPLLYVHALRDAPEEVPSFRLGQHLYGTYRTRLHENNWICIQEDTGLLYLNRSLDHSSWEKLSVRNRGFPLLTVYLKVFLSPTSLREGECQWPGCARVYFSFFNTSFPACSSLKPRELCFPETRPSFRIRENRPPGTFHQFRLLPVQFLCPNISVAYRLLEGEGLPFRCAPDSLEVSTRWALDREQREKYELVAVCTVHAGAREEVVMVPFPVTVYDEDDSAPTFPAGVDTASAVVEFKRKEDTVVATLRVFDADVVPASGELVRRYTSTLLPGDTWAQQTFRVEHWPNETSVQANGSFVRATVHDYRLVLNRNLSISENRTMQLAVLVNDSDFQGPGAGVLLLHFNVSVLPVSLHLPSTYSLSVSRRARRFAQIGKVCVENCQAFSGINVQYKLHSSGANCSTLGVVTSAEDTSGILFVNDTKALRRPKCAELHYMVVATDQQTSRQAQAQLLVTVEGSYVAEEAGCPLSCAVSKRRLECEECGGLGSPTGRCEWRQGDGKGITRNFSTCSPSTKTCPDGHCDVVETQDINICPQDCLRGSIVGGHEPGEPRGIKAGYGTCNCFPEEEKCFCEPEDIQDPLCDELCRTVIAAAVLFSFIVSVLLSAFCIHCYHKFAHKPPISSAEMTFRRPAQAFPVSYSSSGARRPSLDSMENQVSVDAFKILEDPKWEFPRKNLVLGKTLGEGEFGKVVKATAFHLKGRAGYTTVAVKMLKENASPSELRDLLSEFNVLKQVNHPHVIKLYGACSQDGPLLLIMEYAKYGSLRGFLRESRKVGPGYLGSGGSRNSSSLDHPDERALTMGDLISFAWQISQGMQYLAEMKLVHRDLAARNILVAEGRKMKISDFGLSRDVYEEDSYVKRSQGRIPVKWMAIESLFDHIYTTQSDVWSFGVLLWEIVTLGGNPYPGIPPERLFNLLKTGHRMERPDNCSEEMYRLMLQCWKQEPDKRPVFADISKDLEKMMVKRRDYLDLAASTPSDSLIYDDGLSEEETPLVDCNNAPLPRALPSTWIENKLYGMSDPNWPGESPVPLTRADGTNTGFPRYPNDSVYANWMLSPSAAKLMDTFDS

Chain of 456 kinases (of these 395 non-mutant kinases) (Homo sapiens, UniProt P10721, L576P) (P10721 26-976 L576P limits assumed): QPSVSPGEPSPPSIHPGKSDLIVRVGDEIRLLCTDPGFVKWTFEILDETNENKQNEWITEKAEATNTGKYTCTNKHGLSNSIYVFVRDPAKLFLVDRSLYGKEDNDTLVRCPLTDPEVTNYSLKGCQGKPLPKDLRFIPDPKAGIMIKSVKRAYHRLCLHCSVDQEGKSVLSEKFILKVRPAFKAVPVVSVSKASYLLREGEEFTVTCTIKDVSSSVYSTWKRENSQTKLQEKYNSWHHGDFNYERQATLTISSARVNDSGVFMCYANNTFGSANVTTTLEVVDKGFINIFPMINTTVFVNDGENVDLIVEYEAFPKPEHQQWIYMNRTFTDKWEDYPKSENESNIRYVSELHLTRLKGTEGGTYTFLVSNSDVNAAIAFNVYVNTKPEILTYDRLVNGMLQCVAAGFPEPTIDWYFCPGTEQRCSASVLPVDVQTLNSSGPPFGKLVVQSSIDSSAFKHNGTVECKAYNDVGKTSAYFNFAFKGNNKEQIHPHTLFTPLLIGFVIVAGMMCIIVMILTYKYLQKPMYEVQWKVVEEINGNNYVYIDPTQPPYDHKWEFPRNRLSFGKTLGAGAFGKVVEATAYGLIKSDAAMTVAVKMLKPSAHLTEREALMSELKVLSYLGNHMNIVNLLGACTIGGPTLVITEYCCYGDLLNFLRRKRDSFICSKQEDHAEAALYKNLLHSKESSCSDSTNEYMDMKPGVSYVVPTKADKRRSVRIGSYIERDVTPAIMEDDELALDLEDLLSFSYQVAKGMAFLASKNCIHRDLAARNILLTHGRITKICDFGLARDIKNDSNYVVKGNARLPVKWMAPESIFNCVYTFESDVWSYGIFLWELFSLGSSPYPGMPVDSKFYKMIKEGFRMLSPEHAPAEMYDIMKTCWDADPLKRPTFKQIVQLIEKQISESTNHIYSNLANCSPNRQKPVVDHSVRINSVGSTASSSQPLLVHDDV
Chain of 456 kinases (of these 395 non-mutant kinases) (Homo sapiens, UniProt P00533) (P00533 25-1210 limits assumed, change not shown): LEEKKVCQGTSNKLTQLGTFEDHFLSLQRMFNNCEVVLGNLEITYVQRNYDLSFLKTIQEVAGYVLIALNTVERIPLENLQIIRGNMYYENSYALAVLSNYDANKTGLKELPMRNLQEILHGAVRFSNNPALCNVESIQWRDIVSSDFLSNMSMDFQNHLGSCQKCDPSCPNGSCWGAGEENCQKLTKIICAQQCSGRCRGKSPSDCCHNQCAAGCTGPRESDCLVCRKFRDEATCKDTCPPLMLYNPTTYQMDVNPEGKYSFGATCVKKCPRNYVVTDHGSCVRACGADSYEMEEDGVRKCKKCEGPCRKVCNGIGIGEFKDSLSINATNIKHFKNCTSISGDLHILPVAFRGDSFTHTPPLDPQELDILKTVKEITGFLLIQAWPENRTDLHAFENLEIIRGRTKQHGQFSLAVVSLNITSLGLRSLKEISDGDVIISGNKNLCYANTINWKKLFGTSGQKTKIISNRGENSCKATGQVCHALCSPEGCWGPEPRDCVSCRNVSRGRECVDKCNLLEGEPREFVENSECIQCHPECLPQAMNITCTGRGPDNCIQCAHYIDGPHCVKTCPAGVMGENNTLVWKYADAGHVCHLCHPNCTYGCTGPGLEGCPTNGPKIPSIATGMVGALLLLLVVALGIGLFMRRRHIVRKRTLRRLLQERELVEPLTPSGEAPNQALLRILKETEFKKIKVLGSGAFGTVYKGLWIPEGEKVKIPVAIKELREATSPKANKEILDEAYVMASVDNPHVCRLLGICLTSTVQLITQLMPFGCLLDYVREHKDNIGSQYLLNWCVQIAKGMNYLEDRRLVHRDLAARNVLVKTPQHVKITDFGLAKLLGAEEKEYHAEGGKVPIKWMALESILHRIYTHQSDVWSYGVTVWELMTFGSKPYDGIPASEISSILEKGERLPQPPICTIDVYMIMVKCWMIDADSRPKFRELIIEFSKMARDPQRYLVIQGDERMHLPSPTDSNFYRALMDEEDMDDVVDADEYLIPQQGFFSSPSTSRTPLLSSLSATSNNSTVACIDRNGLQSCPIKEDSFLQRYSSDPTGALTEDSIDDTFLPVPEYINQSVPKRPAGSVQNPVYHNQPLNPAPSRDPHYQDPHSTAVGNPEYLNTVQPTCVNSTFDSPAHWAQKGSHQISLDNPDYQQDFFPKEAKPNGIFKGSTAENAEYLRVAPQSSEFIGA
Chain of 456 kinases (of these 395 non-mutant kinases) (Homo sapiens, UniProt Q05397) (Q05397 2-1052 limits assumed, change not shown): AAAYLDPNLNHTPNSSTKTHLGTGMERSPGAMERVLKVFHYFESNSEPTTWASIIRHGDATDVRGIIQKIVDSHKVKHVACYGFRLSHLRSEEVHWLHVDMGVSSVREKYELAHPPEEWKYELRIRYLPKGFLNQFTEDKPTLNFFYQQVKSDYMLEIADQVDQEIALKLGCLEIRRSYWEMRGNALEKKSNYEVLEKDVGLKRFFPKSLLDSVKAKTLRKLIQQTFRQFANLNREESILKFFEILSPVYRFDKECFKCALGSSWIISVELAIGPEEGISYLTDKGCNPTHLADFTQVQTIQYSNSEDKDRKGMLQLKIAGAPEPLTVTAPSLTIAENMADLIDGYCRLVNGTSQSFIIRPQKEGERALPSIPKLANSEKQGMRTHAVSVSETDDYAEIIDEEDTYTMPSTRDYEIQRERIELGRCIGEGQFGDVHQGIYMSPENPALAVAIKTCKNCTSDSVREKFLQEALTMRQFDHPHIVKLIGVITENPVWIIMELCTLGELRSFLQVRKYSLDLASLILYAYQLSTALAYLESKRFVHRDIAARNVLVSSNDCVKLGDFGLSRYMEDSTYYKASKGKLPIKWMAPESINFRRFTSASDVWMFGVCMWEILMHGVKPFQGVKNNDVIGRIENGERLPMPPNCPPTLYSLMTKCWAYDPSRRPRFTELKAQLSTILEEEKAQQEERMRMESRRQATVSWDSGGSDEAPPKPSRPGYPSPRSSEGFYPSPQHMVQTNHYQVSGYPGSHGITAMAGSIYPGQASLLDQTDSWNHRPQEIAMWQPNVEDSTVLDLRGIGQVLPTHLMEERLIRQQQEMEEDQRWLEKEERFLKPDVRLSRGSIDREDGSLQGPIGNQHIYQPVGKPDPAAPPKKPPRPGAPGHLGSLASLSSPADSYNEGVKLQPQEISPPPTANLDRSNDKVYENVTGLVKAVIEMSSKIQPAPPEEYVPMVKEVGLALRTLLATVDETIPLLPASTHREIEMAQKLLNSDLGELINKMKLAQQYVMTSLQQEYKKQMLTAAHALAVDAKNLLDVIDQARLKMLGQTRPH
Chain of 456 kinases (of these 395 non-mutant kinases) (Homo sapiens, UniProt P53350) (P53350 2-603 limits assumed, stated change not applied): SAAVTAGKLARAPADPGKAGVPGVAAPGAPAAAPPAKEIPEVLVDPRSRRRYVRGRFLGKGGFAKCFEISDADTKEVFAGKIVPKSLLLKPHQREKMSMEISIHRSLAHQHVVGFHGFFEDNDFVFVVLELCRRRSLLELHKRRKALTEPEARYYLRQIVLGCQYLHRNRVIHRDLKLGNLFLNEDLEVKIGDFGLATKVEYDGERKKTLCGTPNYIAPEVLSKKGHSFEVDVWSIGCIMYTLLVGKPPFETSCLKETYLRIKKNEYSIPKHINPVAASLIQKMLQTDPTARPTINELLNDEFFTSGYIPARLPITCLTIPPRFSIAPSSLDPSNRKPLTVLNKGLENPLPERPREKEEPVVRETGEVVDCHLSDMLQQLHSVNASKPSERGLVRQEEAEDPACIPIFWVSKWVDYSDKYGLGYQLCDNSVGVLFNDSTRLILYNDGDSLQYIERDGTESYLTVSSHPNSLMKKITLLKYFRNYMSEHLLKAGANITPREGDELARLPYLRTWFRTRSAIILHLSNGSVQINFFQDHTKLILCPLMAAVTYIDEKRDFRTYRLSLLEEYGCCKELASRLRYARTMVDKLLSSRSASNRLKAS

CCc1ccccc1NC(=O)c1c(C)nsc1Nc1cnc2cc(F)ccc2n1 [Example 20, N-(2-Ethylphenyl)-5-[(6-fluoroquinoxalin-2-yl)amino]-3-methyl-1,2-thiazole-4-carboxamide]
% Ctrl @ 10 μM [1]: 87 % Ctrl
% Ctrl @ 10 μM [2]: 81 % Ctrl
% Ctrl @ 10 μM [3]: 100 % Ctrl
% Ctrl @ 10 μM [4]: 95 % Ctrl
% Ctrl @ 10 μM [5]: 74 % Ctrl
% Ctrl @ 10 μM [6]: 100 % Ctrl
% Ctrl @ 10 μM [7]: 75 % Ctrl
% Ctrl @ 10 μM [8]: 77 % Ctrl
% Ctrl @ 10 μM [9]: 100 % Ctrl
% Ctrl @ 10 μM [10]: 98 % Ctrl
% Ctrl @ 10 μM [11]: 100 % Ctrl
% Ctrl @ 10 μM [12]: 86 % Ctrl
% Ctrl @ 10 μM [13]: 96 % Ctrl
% Ctrl @ 10 μM [14]: 100 % Ctrl
% Ctrl @ 10 μM [15]: 82 % Ctrl
% Ctrl @ 10 μM [16]: 84 % Ctrl
% Ctrl @ 10 μM [17]: 100 % Ctrl
% Ctrl @ 10 μM [18]: 96 % Ctrl
% Ctrl @ 10 μM [19]: 94 % Ctrl
% Ctrl @ 10 μM [20]: 100 % Ctrl
% Ctrl @ 10 μM [21]: 100 % Ctrl
% Ctrl @ 10 μM [22]: 85 % Ctrl
% Ctrl @ 10 μM [23]: 91 % Ctrl
% Ctrl @ 10 μM [24]: 100 % Ctrl
% Ctrl @ 10 μM [25]: 83 % Ctrl
% Ctrl @ 10 μM [26]: 61 % Ctrl
% Ctrl @ 10 μM [27]: 94 % Ctrl
% Ctrl @ 10 μM [28]: 87 % Ctrl
% Ctrl @ 10 μM [29]: 100 % Ctrl
% Ctrl @ 10 μM [30]: 88 % Ctrl
% Ctrl @ 10 μM [31]: 96 % Ctrl
% Ctrl @ 10 μM [32]: 100 % Ctrl
